# Experimental data published in patent US6548543B1, “Remedies or preventives containing cyclopentenone compounds as the active ingredient” (Takara Shuzo Co., Ltd., priority 1998, dated 2003).
# Experiments:
# [1] = tested on: 70-kDa heat shock protein; assay: Induction of 70-kDa heat shock protein in HL-60 cells (Western blot); assay type: cell-based; parameters: key to Degree of induction of 70-kDa heat shock protein: − means that no induction was observed; ± means that a slight induction was observed; + represents the induction level; ++: Increased number of + means increased induction; +++: Increased number of + means increased induction; conditions: HL-60, 6 hours
# Description: (1) 5 ml of RPMI 1640 medium containing 10% fetal calf serum and HL-60 (ATCC CCL-240) cells at a concentration of 2×10^5 cells/ml was placed in each well of a 6-well plate. The plate was incubated at 37° C. for 24 hours in the presence of 5% CO2. Dipropionylcyclopentenone, diisobutyrylcyclopentenone or di-2-hexenoylcyclopentenone at a final concentration of 0, 0.63, 1.3, 2.5, 5, 10 or 20 μM was then added thereto. The incubation was continued for additional 6 hours.
# After incubation, the cell number was counted. The cells were harvested by centrifugation, washed with PBS to prepare cells treated with one of the samples. Cells that were cultured in the same manner after heated at 45° C. for 10 minutes were also prepared.
# These treated cells were used for SDS-PAGE according to the method as described in Molecular Cloning [Cold Spring Harbor Laboratory Press (1989)]. The treated cells were suspended in SDS-PAGE Sample buffer at a concentration of 2.5×10^6 cells/ml. The cell suspensions were treated at 100° C. for 10 minutes. 5 μl each of the cell suspensions was applied to two SDS-PAGE gels (5% stacking gel, 10% separation gel) and electrophoresed. One of the gels was subjected to Coomassie staining. The other gel was blotted onto a polyvinylidene difluoride transfer membrane (Immobilon™, Millipore, Cat. #IPVH000-10). The membrane was blocked at 4° C. overnight using Block Ace (Dainippon Pharmaceutical, Cat. #UK-B25).
# The blocked membrane was reacted with a monoclonal antibody HSP72/73(Ab-1) (Oncogene Research Products, Cat. #HSP01), which specifically reacts with heat-inducible 70-kDa heat shock protein. The membrane was washed with TBS containing 0.05% Tween 20 followed by TBS. The membrane was then reacted with a peroxidase-conjugated secondary antibody HRP-Rabbit Anti-Mouse IgG (H+L) (Zymed Laboratories, Inc., Cat. #61-6520), and then washed as described above. The membrane reacted with the primary and secondary antibodies was reacted with a chemiluminol reagent Renaissance™ (Dupont NEN, Cat. #NEL-100). The membrane was then exposed to an X-ray film to confirm the induction of 70-kDa heat shock protein.
# [2] = tested on: spleen lymphocytes stimulated with Con A; assay: Lymphocyte blastogenesis stimulated with Con A, 3H-thymidine uptake; assay type: cell-based, ddY mouse; conditions: 10 μM
# Description: (1) A spleen was taken out from ddY mouse (male, 7 weeks old, purchased from Japan SLC), finely minced and suspended in RPMI-1640 medium containing 10% FCS (HyClone) to obtain a single cell suspension. The cell suspension was seeded into a plastic Petri dish and cultured at 37° C. for 2 hours in a CO2 incubator to remove adhesive cells adhered to the dish. Non-adhesive cells were used as spleen lymphocytes. 200 μl of suspension of the spleen lymphocytes at a cell concentration of 2×10^6/ml was seeded into each well of a 96-well microtiter plate. Dipropionylcyclopentenone at a varying concentration was added to each well other than the control well. Furthermore, 5 μg of Con A (Nacalai Tesque) was added to each well. The plate was incubated at 37° C. for 1 day in a CO2 incubator. After incubation, 1 μCi of ^3H-thymidine was added to each well. After culturing for additional 1 day, the uptake into cells was measured using a liquid scintillation counter.
# FIG. 7 illustrates the relationship between the concentration of dipropionylcyclopentenone and the amount of ^3H-thymidine uptake. The horizontal axis represents dipropionylcyclopentenone concentration (μM) and the vertical axis represents the ^3H-thymidine uptake (CPM). The open bar represents the ^3H-thymidine uptake without stimulation.
# Mouse leukemia P-388 = assay: Survival of mice given mouse leukemia P-388; assay type: in vivo, DBA/2 mouse; conditions: P-388, single dose 10 mg/kg intraperitoneal
# Description: (1) Mouse leukemia P-388 (1.1×10^6 cells/mouse) was intraperitoneally administered to a 7-weeks old female DBA/2 mouse. Immediately after the administration, a single dose of 10 mg/kg dipropionylcyclopentenone was intraperitoneally administered. On the other hand, saline was intraperitoneally administered to a control group in a similar manner. Survival number of mice, average days of survival and prolongation rate were calculated for 2 groups each consisting of 8 mice.
# Mouse solid tumor Meth A = assay: Mouse solid tumor Meth A, weight of cancer; assay type: in vivo, BALB/c mouse; conditions: subcutaneous at tumor site for successive 5 days, after 2 weeks
# Description: (2) Mouse solid tumor Meth A (2×10^6 cells/mouse) was subcutaneously injected into a back of a 8-weeks old female BALB/c mouse. Subsequently, dipropionylcyclopentenone was subcutaneously injected at the same site for successive 5 days. Saline was subcutaneously injected to a control group in a similar manner. Each group consisted of 8 mice.
# After 2 weeks, the cancerous tissue formed in the back of the mouse was taken out and the weight of the tissue was measured.
# Meth A = assay: Ascitic cancer Meth A, prolongation of survival, 5 successive days; assay type: in vivo, BALB/c mouse; conditions: for 30-day survival number: groups of 8 mice
# Description: (3) The carcinostatic activities of dipropionylcyclopentenone and diisobutyrylcyclopentenone against various ascitic cancers were examined using two types of cancer cells, Ehrlich ascites carcinoma (EAC) and Meth A, administered intraperitoneally or orally at a varying dose.
# Dipropionylcyclopentenone or diisobutyrylcyclopentenone was intraperitoneally or orally administered for 5 successive days from the day after the transplantation with cancer cells. Injectable distilled water was administered to a control group in a similar manner. Average days of survival, prolongation rate and 30-day survival number were calculated for groups each consisting of 8 mice.
smiles,measurement,setting,value
CCC(=O)OC1C=CC(=O)C1OC(=O)CC (stereo not shown),Degree of induction of 70-kDa heat shock protein,[1]; 0.63 μM,−
same,Degree of induction of 70-kDa heat shock protein,[1]; 1.3 μM,±
same,Degree of induction of 70-kDa heat shock protein,[1]; 2.5 μM,+
same,Degree of induction of 70-kDa heat shock protein,[1]; 5 μM,+++
same,Degree of induction of 70-kDa heat shock protein,[1]; 10 μM,++
same,Degree of induction of 70-kDa heat shock protein,[1]; 20 μM,++
same,Inhibition of proliferation of mouse lymphocytes stimulated with Con A (FIG. 7),[2],almost completely inhibited
same,Average days of survival,Mouse leukemia P-388,13.9 days
same,Prolongation rate,Mouse leukemia P-388,137.0%
same,Inhibition rate,Mouse solid tumor Meth A,92.3%
same,Mice in which no cancerous tissue was formed,Mouse solid tumor Meth A,5 out of 8
same,Weight of cancer mean ± SE,Mouse solid tumor Meth A,0.05 ± 0.08 g
same,Weight of cancer mean ± SE,Mouse solid tumor Meth A; listed as dipropionylcyclopentenone,0.05 g
same,Average days of survival,Meth A; intraperitoneal 10 mg/kg,20.5 days
same,Prolongation rate,Meth A; intraperitoneal 10 mg/kg,174%
same,30-day survival number,Meth A; intraperitoneal 10 mg/kg,0
same,Average days of survival,Meth A; oral 30 mg/kg,17.3 days
same,Prolongation rate,Meth A; oral 30 mg/kg,>147%
same,30-day survival number,Meth A; oral 30 mg/kg,2
